Measurements published in ChEMBL document CHEMBL3272091, “Ergot alkaloids. Synthesis of 6-alkyl-8-ergolenes and 6-methyl-8-aminoergolines as potential prolactin inhibitors” (1977).
Activity calls are given as the source filed them. The rule behind the calls is not given here.

Experiments:
Rattus norvegicus [1] = test: Prolactin inhibition ability in Sprague-Dawley rat at 10 ug/ml, ip administered 18 hrs post reserpine treatment measured after 1 hr by RIA relative to lergotrile; type: functional
Rattus norvegicus [2] = test: Prolactin inhibition ability in Sprague-Dawley rat at 10 ug/ml, ip administered 18 hrs post reserpine treatment measured after 1 hr by RIA; type: functional
Rattus norvegicus [3] = test: Prolactin stimulation ability in Sprague-Dawley rat at 10 ug/ml, ip administered 18 hrs post reserpine treatment measured after 1 hr by RIA; type: functional, organism-based
Rattus norvegicus [4] = test: Prolactin inhibition ability in Sprague-Dawley rat at 10 ug/ml, ip administered 18 hrs post reserpine treatment measured after 1 hr by RIA relative to ergoconine; type: functional

CCN1CC(CO)=C[C@@H]2c3cccc4[nH]cc(c34)C[C@H]21
inhibition (INH) (Rattus norvegicus [1]): 77%
inhibition (INH) (Rattus norvegicus [2]): 63%

CN1C[C@H](NC(=O)CBr)C[C@@H]2c3cccc4[nH]cc(c34)C[C@H]21
inhibition (Rattus norvegicus [3]): Active

CCCN1CC(CO)=C[C@@H]2c3cccc4[nH]cc(c34)C[C@H]21
inhibition (INH) (Rattus norvegicus [1]): 77%
inhibition (INH) (Rattus norvegicus [2]): 72%

CCOC(=O)CN1CC(CO)=C[C@@H]2c3cccc4[nH]cc(c34)C[C@H]21
inhibition (INH) (Rattus norvegicus [1]): 77%
inhibition (INH) (Rattus norvegicus [2]): 14%

CN1C[C@H](NC(=O)CCl)C[C@@H]2c3cccc4[nH]cc(c34)C[C@H]21
inhibition (Rattus norvegicus [3]): Active

CN1C[C@H](N)C[C@@H]2c3cccc4[nH]cc(c34)C[C@H]21
inhibition (INH) (Rattus norvegicus [2]): 57%

CCC(=O)N1CC(CO)=C[C@@H]2c3cccc4[nH]cc(c34)C[C@H]21
inhibition (INH) (Rattus norvegicus [1]): 77%

N#CN1CC(CO)=C[C@@H]2c3cccc4[nH]cc(c34)C[C@H]21
inhibition (INH) (Rattus norvegicus [4]): 67%
inhibition (INH) (Rattus norvegicus [2]): 25%

CC(=O)N1CC(CO)=C[C@@H]2c3cccc4[nH]cc(c34)C[C@H]21
inhibition (Rattus norvegicus [3]): Active

OCC1=C[C@@H]2c3cccc4[nH]cc(c34)C[C@H]2N(Cc2ccccc2)C1
inhibition (INH) (Rattus norvegicus [1]): 60%

CN1CC(CO)=C[C@@H]2c3cccc4[nH]cc(c34)C[C@H]21
inhibition (INH) (Rattus norvegicus [4]): 75%
inhibition (INH) (Rattus norvegicus [2]): 71%

OCC1=C[C@@H]2c3cccc4[nH]cc(c34)C[C@H]2NC1
inhibition (INH) (Rattus norvegicus [4]): 67%
inhibition (INH) (Rattus norvegicus [2]): 58%
